# Experimental data as given in patent US6452005B1, “JAK-3 inhibitors for treating allergic disorders” (Parker Hughes Institute, priority 1999, dated 2002).
# Where two headings read alike, the source gives them in different places.
# Columns and labels:
# [1] = Pharmacokinetic studies in mice; type: in vivo; settings: for Cmax: 12.5 mg/kg bolus, read-out: estimated maximum plasma concentration (Cmax)
# Protocol: FIGS. 13A and 13B are graphs showing pharmacokinetic features of the JAK3 inhibitor WHI-P131 in mice. Plasma concentration-time profiles of WHI-P131 in mice following intravenous [13A] or intraperitoneal [13B] administration (12.5 mg/kg; 5 mice per group). The pharmacokinetic parameters, including the central volume of distribution (Vc), estimated maximum plasma concentration (Cmax), elimination half-life (t½β), systemic exposure level/area under plasma concentration-time curve (AUC), and bioavailability (F), are shown in the insets.
# Pharmacokinetic Studies: In pharmacokinetic studies, mice were injected either intravenously (i.v.) via the tail vein or intraperitoneally (i.p.) with a bolus dose of 300 μg/mouse (12.5 mg/kg =34 μmols/kg) of WHI-P131. Blood samples were obtained from the ocular venous plexus by retroorbital venupuncture prior to and at 3 minutes, 5 minutes, 10 minutes, 15 minutes, 30 minutes, 45 minutes and 1 hour, 2 hours, 4 hours and 8 hours a administration of WHI-P131. All collected blood samples were heparinized and centrifuged at 7,000×g for 10 minutes in a microcentrifuge to obtain plasma. The plasma samples were stored at −20° C. until analysis. Aliquots of plasma were used for extraction and HPLC analysis. Pharmacokinetic modeling and pharmacokinetic parameter calculations were carried out using the pharmacokinetics software, WinNonline Program, Version 1.1. (Scientific Consulting Inc., Cary, N.C.). Concentration data were weighted by 1/concentration. An appropriate pharmacokinetic model was chosen on the basis of lowest weighted squared residuals, lowest Schwartz criterion (SC), lowest Akaike's Information Criterion (AIC) value, lowest standard errors of the fitted parameters, and dispersion of the residuals. The elimination half-life was estimated by linear regression analysis of the terminal phase of the plasma concentration profile. The area under the concentration time curve (AUC) was calculated by the trapezoidal rule between first (0 h) and last sampling time plus C/k, where C is the concentration of last sampling and k is the elimination rate constant. Systemic clearance (CL) was determined by dividing the dose by the AUC. The apparent volume of distribution at steady-state was calculated using the following equation, Vss=Dose·AUMC/(AUC)^2 Bioavailability (F) was estimated using the equation F(%)=AUCip×Doseiv/AUCiv×Doseip.
# In brief, the HPLC system consisted of a Hewlett Packard (HP) series 1100 equipped with an automated electronic degasser, a quaternary pump, an autosampler, an automatic thermostatic column compartment, diode array detector and a computer with a Chemstation software program for data analysis. A 250×4 mm Lichrospher 100, RP-18 (5 μm) analytical column and a 4×4 mm Lichrospher 100, RP-18 (5 μm) guard column were obtained from Hewlett Packard Inc. (San Fernando, Calif.). Acetonitrile/water containing 0.1% of trifluoroacetic acid (TFA) and 0.1% triethylamine (TEA) (28:72, v/v) was used as the mobile phase. The wavelength of detection was set at 340 nm. Peak width, response time and slit were set at >0.03 minutes, 0.5 seconds and 8 nm, respectively. […] For extraction, 7 ml chloroform was then added to the plasma sample, and the mixture was vortexed thoroughly for 3 minutes. Following centrifugation (300×g, 5 minutes), the aqueous layer was frozen using acetone/dry ice and the organic phase was transferred into a clean test tube. The chloroform extracts were dried under a slow steady stream of nitrogen. The residue was reconstituted in 100 μL of methanol: water (9:1) and 50 μL aliquot of this solution was used for HPLC analysis.
# BALB/c mice = test: IgE/antigen-induced active systemic anaphylaxis model; type: in vivo; settings: BSA-sensitized mice, two doses of 45 mg/kg before challenge; 8 of 15
# Protocol: FIG. 14E is a graph showing results of a study of the effect of JAK3 inhibitor WHI-P131 on fatal anaphylaxis in mice. BALB/c mice were sensitized with 100 mg/kg bovine serum albumin in 200 μl of the adjuvant aluminum hydroxide gel (Reheis Inc., Berkeley, N.J.), which favors the production of IgE in response to the presented antigen. Ten days later, mice were treated with two doses of WHI-P131 (45 mg/kg) or vehicle 30 minutes apart and then challenged with an i.v. injection of the 10 mg/kg BSA. Cumulative proportions of mice surviving anaphylaxis-free are shown according to the time after the antigen challenge.
# To induce passive systemic anaphylaxis, BALB/c mice were sensitized with […] DNP-IgE intravenously. At 24 hours DNP-BSA (2 mg) was administered intravenously with 0.5% Evans blue (200 μl). For assessment of vascular leak, animals were sacrificed 30 minutes after the antigen challenge and their foot pads were examined for blue coloration. Histamine levels in plasma were measured 5 minutes after the antigen challenge. […] For histopathologic evaluation of tissue mast cell degranulation, ears of mice were removed 1 hour after the DNP-BSA injection and fixed in 10 percent buffered formalin. […]
# JAK3 = JAK3 activation in RBL-2H3 mast cells after IgE receptor crosslinking; settings: 30 μM
# Protocol: (§1) Cells were lysed at the indicated time points, and SYK immune complexes were subjected to kinase assays in the presence of cold ATP followed by APT immunoblotting (upper panels in 8C & 8D) as well as to SYK Western blot analysis (lower panels in 8C & 8D).
# (§2) Immune-Complex Kinase Assays and Western Blot Analyses of Mast Cell Lysates. […] Cells were harvested, lysed (10 mM Tris pH 7.6, 100 mM NaCl, 1% Nonidet P-40, 10% glycerol, 50 mM NaF, 100 mM Na3VO4, 50 mg/ml phenylmethylsulfonyl fluoride, 10 mg/ml aprotonin, 10 mg/ml leupeptin), and the kinases were immunoprecipitated from the lysates, as reported (Uckun et. al., 1995, Science, 267:886-891; Uckun et. al., 1996, Science, 273:1096-1100). […] Immunoprecipitations, and immunoblotting using the ECL chemiluminescence detection system (Amersham Life Sciences) were conducted as described previously (Uckun et. al., 1996, Science, 273:1096-1100).
# [2] = test system: mouse bone marrow mast cells; settings: data not shown
# LYN = molecular target: T1, LYN (Homo sapiens, UniProt P07948); test: Immune complex kinase assay, LYN from NALM-6 cells; type: biochemical; settings: concentrations as high as 350 μM
# T1 construct: LYN was immunoprecipitated from whole cell lysates of NALM-6 human leukemia cells; endogenous in cells; host or cells: NALM-6 human B-lineage ALL cells
# T1 sequence (P07948 whole entry): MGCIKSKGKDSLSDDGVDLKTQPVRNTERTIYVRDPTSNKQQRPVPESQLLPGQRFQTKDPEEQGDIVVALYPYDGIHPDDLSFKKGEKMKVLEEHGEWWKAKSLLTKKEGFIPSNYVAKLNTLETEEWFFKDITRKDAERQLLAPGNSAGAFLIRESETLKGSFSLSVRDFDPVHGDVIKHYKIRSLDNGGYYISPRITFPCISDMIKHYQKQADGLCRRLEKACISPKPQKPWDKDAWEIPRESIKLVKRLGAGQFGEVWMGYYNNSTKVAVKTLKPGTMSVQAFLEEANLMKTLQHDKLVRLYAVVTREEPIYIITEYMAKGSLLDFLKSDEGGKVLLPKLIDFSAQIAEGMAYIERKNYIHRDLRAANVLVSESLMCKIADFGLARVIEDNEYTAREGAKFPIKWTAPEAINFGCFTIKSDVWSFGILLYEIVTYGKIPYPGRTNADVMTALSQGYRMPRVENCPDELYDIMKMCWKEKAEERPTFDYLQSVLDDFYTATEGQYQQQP
# SYK = SYK activation in RBL-2H3 mast cells after IgE receptor crosslinking; settings: 30 μM
# Protocol: as §1, §2
compound,measurement,setting,value
"COc1cc2ncnc(Nc3ccc(O)cc3)c2cc1OC [WHI-P131, 4-(4′-Hydroxylphenyl)-amino-6,7-dimethoxyquinazoline]",absorption half-life,"[1]; i.p., 12.5 mg/kg",6 min
same,estimated bioavailability,"[1]; i.p., 12.5 mg/kg",94.4%
same,time to reach maximum plasma concentration,"[1]; i.p., 12.5 mg/kg",0.17 h
same,β-half-life,"[1]; i.p., 12.5 mg/kg",1.9 h
same,Cmax,[1]; i.p.,57.7 µM
same,β-half-life,"[1]; i.v., 12.5 mg/kg",2.1 h
same,Cmax,[1]; i.v.,85.6 µM
same,mice surviving without any signs of anaphylaxis,BALB/c mice,53%
same,JAK3 activation after IgE receptor crosslinking,JAK3,abrogated
same,IgE receptor/FcεRI-mediated release of LTC4,[2],markedly reduced
same,IgE receptor/FcεRI-mediated release of histamine,[2],markedly reduced
same,effect on enzymatic activity of LYN,LYN,did not affect
same,SYK activation after IgE receptor/FcεRI crosslinking,SYK,did not prevent
